Laboratory results published in EP4483954A1 (Masarykova Univerzita, priority 2023, dated 2025).
pIC50: −log10 of the molar value.

Each compound was assayed against T1, Haspin (h) (Homo sapiens, UniProt Q8TF76) (assay: radiometric kinase assay (KinaseProfiler, Eurofins), Haspin). Details: in vitro radiometric kinase assay, tested at 1 nM to 10 000 nM, no pre-incubation; read-out: inhibitory activities (IC50 values) Haspin.
T1 construct: purchased Eurofins (KinaseProfiler)
T1 sequence (Q8TF76 1-798): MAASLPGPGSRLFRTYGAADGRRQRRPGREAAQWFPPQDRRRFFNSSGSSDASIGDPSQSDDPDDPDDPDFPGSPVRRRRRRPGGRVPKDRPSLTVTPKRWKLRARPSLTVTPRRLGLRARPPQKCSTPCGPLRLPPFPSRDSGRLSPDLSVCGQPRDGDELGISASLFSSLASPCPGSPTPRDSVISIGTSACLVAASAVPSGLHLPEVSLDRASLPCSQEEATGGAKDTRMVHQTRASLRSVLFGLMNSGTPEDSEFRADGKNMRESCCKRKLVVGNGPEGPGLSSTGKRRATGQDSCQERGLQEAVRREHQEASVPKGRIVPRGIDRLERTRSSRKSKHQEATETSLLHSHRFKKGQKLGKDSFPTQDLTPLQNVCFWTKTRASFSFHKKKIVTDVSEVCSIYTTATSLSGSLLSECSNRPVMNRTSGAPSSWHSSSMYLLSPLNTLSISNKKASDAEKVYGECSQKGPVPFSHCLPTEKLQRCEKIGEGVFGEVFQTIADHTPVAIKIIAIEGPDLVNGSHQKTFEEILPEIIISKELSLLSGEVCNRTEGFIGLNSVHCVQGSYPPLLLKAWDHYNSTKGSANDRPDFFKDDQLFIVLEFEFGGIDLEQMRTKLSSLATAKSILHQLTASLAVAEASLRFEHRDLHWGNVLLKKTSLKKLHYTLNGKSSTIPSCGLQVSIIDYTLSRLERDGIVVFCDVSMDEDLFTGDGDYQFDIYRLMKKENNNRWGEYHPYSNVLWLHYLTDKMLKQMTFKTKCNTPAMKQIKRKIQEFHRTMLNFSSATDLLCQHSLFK
Format: biochemical
Protocol: The compounds were profiled in the radiometric assays (KinaseProfiler, Eurofins).
Briefly, kinases were diluted in the buffer shown below prior to addition to the reaction mix: • CDKL3, TAF1L: 20 mM Tris/HCl pH 8.5, 0.2 mM EDTA, 0.1% β-mercaptoethanol, 0.01% Brij-35, 5% glycerol, 1 mg/ml BSA; • Haspin: 15 mM MOPS, 0.75 mM EDTA, 0.0075% Brij-35, 3.75% Glycerol, 150 mM NaCl, 0.1% β-mercaptoethanol, 1 mg/mLBSA; • CDKL4, CLK2, PIM1, TRB2: […], 1 mM EDTA, 0.01% Brij-35, 5% Glycerol, 0.1% β-mercaptoethanol, 1 mg/mL BSA.
All compounds were prepared to 50x final assay concentration in 100% DMSO. This working stock of the compound was added to the assay well as the first component in the reaction, followed by the remaining components as detailed in the general assay protocols below. There was no pre-incubation step between the compound and the kinase prior to initiation of the reaction.
Haspin (h) was incubated with 8 mM MOPS pH 7.0, 0.2 mM EDTA, 500 µM RARTLSFAEPG (SEQ ID NO. 3), 10 mM magnesium acetate and γ-^33P-ATP (specific activity and concentration as required). The reaction was initiated by the addition of the Mg/ATP mix. After incubation for 40 minutes at room temperature, the reaction was stopped by the addition of phosphoric acid to a concentration of 0.5%. An aliquot of the reaction was then spotted onto a filter and washed four times for 4 minutes in 0.425% phosphoric acid and once in methanol prior to drying and scintillation counting.
Kinase activity data were expressed as the percent remaining kinase activity in tested samples compared to the vehicle (DMSO) reactions. The compounds were tested at the following concentrations: 1 nM, 3 nM, 10 nM, 30 nM, 100 nM, 300 nM, 1000 nM, 3000 nM, and 10 000 nM; IC50 values and curve fits were then obtained.
With Cn1ccc(-c2ccc3scc(-c4ccc5ncnn5c4)c3n2)n1 [Preparative Example 129, 3-([1,2,4]triazolo[1,5-a]pyridin-6-yl)-5-(1-methyl-1H-pyrazol-3-yl)thieno[3,2-b]pyridine] the pIC50 was 6.30 to 7.00.
c1cnc(-c2ccc3scc(-c4ccc5ncnn5c4)c3n2)nc1 [Preparative Example 130, 3-([1,2,4]triazolo[1,5-a]pyridin-6-yl)-5-(pyrimidin-2-yl)thieno[3,2-b]pyridine] showed a pIC50 of 5.52 to 6.30.
In the case of c1cncc(-c2ccc3scc(-c4ccc5ncnn5c4)c3n2)c1 [Preparative Example 131, 3-([1,2,4]triazolo[1,5-a]pyridin-6-yl)-5-(pyridin-3-yl)thieno[3,2-b]pyridine], the pIC50 was 6.30 to 7.00.
c1cc(-c2ccc3scc(-c4ccc5ncnn5c4)c3n2)ccn1 [Preparative Example 132, 3-([1,2,4]triazolo[1,5-a]pyridin-6-yl)-5-(pyridin-4-yl)thieno[3,2-b]pyridine] showed a pIC50 of 7.00 to 7.70.
Work on CC(C)(C)OC(=O)n1cc(Nc2ccc3scc(-c4ccc5ncnn5c4)c3n2)cn1 [Preparative Example 133, tert-butyl 4-((3-([1,2,4]triazolo[1,5-a]pyridin-6-yl)thieno[3,2-b]pyridin-5-yl)amino)-1H-pyrazole-1-carboxylate] yielded a pIC50 of 5.00 to 5.52.
For c1nc2ccc(-c3csc4ccc(Nc5cn[nH]c5)nc34)cn2n1 [Preparative Example 134, 3-([1,2,4]triazolo[1,5-a]pyridin-6-yl)-N-(1H-pyrazol-4-yl)thieno[3,2-b]pyridin-5-amine], the pIC50 was 6.30 to 7.00.
In the case of Cn1ccc(Nc2ccc3scc(-c4ccc5nncn5c4)c3n2)n1 [Preparative Example 135, 3-([1,2,4]triazolo[4,3-a]pyridin-6-yl)-N-(1-methyl-1H-pyrazol-3-yl)thieno[3,2-b]pyridin-5-amine], the pIC50 was 5.52 to 6.30.
Cc1sc2ccc(-c3ccn(C)n3)nc2c1-c1ccncc1 [Preparative Example 143, 2-methyl-5-(1-methyl-1H-pyrazol-3-yl)-3-(pyridin-4-yl)thieno[3,2-b]pyridine] showed a pIC50 of 5.52 to 6.30.
Cc1cc(-c2ccn(C)n2)nc2c(-c3ccncc3)csc12 [Preparative Example 158, 7-methyl-5-(1-methyl-1H-pyrazol-3-yl)-3-(pyridin-4-yl)thieno[3,2-b]pyridine] gave a pIC50 of 6.30 to 7.00.
